Reference: PMC6438731, “Extrasynaptic δ‐GABAA receptors are high‐affinity muscimol receptors” (Journal of Neurochemistry, 2019)

Columns and labels:
[1] = target: T1, α1β2δ recombinant GABAA receptor (Rattus norvegicus, UniProt P62813+P63138); test: [^3H]muscimol binding kinetics, recombinant α1β2δ in HEK293 membranes; conditions: room temperature (22°C)
T1 construct: expressed in transfected cells; host or cells: HEK293 (ATCC CRL-1573), pRK5 plasmids, membranes
Excerpt: (§1) Human embryonic kidney (HEK) 293 cells (ATCC Cat# CRL‐1573; RRID: CVCL_0045; a commonly misidentified cell line by ICLAC; last authenticated by STR DNA profiling in December 2018) were transfected with rat cDNAs (α1, L08490; α6, L08495; β2, X15467; β3, X15468; γ2S, L08497; δ, L08496) in pRK5 plasmids under the control of the cytomegalovirus promoter (Uusi‐Oukari et al. 2000), using the calcium phosphate precipitation method essentially as described (Lüddens and Korpi 1997). The plasmids were used in 1 : 1 and 1 : 1 : 1 ratios for transfections containing 2 [(α1 or α6) + (β2 or β3)] or 3 [(α1 or α6) + (β2 or β3) + (γ2S or δ)] different subunits, respectively (5 μg of each plasmid DNA for a 10 cm plate). […]
(§2) The binding of [^3H]muscimol (5 nM) was measured in assay buffer at 22°C in a total volume of 300 μL. […] Air‐dried filters were immersed in 3 mL of Optiphase HiSafe 3 scintillation fluid (Wallac, Turku, Finland) and radioactivity determined in a Wallac model 1410 liquid scintillation counter (Wallac, Turku, Finland).
(§3) The tubes were mixed and incubations at 22°C were terminated at various time points (30 s – 30 min) as described above. Dissociation of [^3H]muscimol from recombinant receptors in HEK cell membranes was also measured at 0–4°C (on ice) to evaluate how fast [^3H]muscimol dissociates from receptors while washing the filter with ice‐cold assay buffer during filtration.

[2] = target: forebrain membranes of WT mice; test: [^3H]muscimol binding kinetics, WT forebrain membranes; design: species or system mouse
Description: (§4) WT and δKO forebrain and cerebellar membranes were prepared using a modification of the method of Squires and Saederup (2000) essentially as described by Uusi‐Oukari et al. (2014). […] forebrain along with midbrain region was homogenized into 10 mM Tris‐HCl, pH 8.0 buffer containing 2 mM EDTA, using an Ultra‐Turrax T25 (Janke & Kunkel IKA labortechnik) for 20 s at 9500 rpm. The homogenates were centrifuged at 20 000 g for 10 min at +4°C and the resulting pellets were washed three times by resuspension and re‐centrifugation with 10 mM Tris‐HCl, pH 8.5 buffer containing 0.2 M NaCl, and 5 mM EDTA. The resulting pellets were then suspended in ice‐cold H2O and centrifuged. The pellets were again washed three times with Tris, pH 8.5/NaCl/EDTA as described above. The resulting pellets were finally suspended in assay buffer consisting of 50 mM Tris‐base, pH adjusted to 7.4 with citric acid, and frozen at −70°C. Before a binding experiment, the suspension was thawed, centrifuged, and suspended in assay buffer.
(§5) The binding of [^3H]muscimol (5 nM) was measured in assay buffer at 22°C in a total volume of 300 μL. Triplicate technical replicates of mouse forebrain (190–215 μg protein), cerebellar (180–210 μg protein) or HEK cell (92–132 μg protein) membranes for each time point were incubated with shaking for various times (15 s–15 min) to measure association of the binding. […] Air‐dried filters were immersed in 3 mL of Optiphase HiSafe 3 scintillation fluid (Wallac, Turku, Finland) and radioactivity determined in a Wallac model 1410 liquid scintillation counter (Wallac, Turku, Finland). […]
as §3

[3] = target: T2, α6β2 recombinant GABAA receptor (Rattus norvegicus, UniProt P30191+P63138); test: [^3H]muscimol binding kinetics, recombinant α6β2 in HEK293 membranes; conditions: room temperature (22°C)
T2 construct: expressed in transfected cells; host or cells: HEK293 (ATCC CRL-1573), pRK5 plasmids, membranes
Excerpt: as §1
as §2, with “Finland). […]” for “Finland).”
as §3

[4] = target: cerebellar membranes of δKO mice; test: Saturation analysis of [^3H]muscimol binding, δKO cerebellar membranes; design: species or system mouse; conditions: 0°C
Description: as §4
(§6) Saturation analysis of [^3H]muscimol to WT and δKO mouse forebrain and cerebellar membranes was performed essentially as described by Uusi‐Oukari and Korpi (1989). […] The incubations were terminated as described above.

[5] = target: forebrain membranes of WT mice; test: Saturation analysis of [^3H]muscimol binding, WT forebrain membranes; design: species or system mouse; conditions: 0°C
Description: as §4, §6

[6] = target: cerebellar membranes of WT mice; test: [^3H]muscimol binding kinetics, WT cerebellar membranes; design: species or system mouse
Description: as §4, §5, §3

[7] = target: T3, α6β3δ recombinant GABAA receptor (Rattus norvegicus, UniProt P30191+P63079); test: [^3H]muscimol binding kinetics, recombinant α6β3δ in HEK293 membranes
T3 construct: expressed in transfected cells; host or cells: HEK293 (ATCC CRL-1573), pRK5 plasmids, membranes
Excerpt: Human embryonic kidney (HEK) 293 cells (ATCC Cat# CRL‐1573; RRID: CVCL_0045; a commonly misidentified cell line by ICLAC; last authenticated by STR DNA profiling in December 2018) were transfected with rat cDNAs (α1, L08490; α6, L08495; β2, X15467; β3, X15468; γ2S, L08497; δ, L08496) in pRK5 plasmids under the control of the cytomegalovirus promoter (Uusi‐Oukari et al. 2000), using the calcium phosphate precipitation method essentially as described (Lüddens and Korpi 1997). The plasmids were used in 1 : 1 and 1 : 1 : 1 ratios for transfections containing 2 [(α1 or α6) + (β2 or β3)] or 3 [(α1 or α6) + (β2 or β3) + (γ2S or δ)] different subunits, respectively (5 μg of each plasmid DNA for a 10 cm plate). Mock transfection was done using 5 μg pRK5 plasmid backbone. The cells were harvested 48 h after transfection. Culture medium was removed and the cells were detached from the plates by pipetting in ice‐cold assay buffer containing 2 mM EDTA. The cells were homogenized (Ultra Turrax, 20 s at 9500 rpm), the homogenates centrifuged at 20 000 g for 10 min at +4°C, and washed once with the same buffer. The homogenates were finally suspended in assay buffer (1 mL/plate) and either used directly to binding assays or stored frozen at −70°C.
as §2, with “Finland). […]” for “Finland).”
as §3

[8] = target: cerebellar membranes of δKO mice (non‐δ‐GABAARs); test: [^3H]muscimol binding kinetics, δKO cerebellar membranes; design: species or system mouse
Description: as §4, §5, §3

[9] = room temperature (22°C), 5 nM [^3H]muscimol

T3 sequence (P30191 20-453): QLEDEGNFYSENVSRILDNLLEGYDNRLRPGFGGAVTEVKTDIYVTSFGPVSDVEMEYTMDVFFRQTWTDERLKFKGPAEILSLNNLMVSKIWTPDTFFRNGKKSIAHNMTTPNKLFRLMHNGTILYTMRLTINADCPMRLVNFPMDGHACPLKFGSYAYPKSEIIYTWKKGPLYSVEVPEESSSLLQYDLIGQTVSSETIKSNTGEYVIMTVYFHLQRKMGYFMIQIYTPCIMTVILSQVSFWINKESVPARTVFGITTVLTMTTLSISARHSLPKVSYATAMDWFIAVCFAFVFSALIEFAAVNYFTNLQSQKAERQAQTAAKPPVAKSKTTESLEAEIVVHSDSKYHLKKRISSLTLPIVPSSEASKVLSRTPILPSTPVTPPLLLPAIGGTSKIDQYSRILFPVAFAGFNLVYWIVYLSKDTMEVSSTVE
T3 sequence (P63079 26-473): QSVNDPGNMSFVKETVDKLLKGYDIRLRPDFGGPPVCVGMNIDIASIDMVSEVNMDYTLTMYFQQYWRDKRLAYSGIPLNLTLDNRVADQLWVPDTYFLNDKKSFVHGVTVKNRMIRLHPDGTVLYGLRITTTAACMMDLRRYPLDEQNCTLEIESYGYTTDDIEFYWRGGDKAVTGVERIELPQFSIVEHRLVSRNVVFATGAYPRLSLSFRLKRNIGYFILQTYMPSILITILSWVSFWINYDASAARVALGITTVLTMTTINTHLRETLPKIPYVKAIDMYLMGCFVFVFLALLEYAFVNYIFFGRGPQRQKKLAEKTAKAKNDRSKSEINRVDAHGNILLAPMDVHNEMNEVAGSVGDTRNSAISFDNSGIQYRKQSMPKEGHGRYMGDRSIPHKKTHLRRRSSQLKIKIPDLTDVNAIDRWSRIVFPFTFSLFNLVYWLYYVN
T3 sequence (P18506 25-449 partner): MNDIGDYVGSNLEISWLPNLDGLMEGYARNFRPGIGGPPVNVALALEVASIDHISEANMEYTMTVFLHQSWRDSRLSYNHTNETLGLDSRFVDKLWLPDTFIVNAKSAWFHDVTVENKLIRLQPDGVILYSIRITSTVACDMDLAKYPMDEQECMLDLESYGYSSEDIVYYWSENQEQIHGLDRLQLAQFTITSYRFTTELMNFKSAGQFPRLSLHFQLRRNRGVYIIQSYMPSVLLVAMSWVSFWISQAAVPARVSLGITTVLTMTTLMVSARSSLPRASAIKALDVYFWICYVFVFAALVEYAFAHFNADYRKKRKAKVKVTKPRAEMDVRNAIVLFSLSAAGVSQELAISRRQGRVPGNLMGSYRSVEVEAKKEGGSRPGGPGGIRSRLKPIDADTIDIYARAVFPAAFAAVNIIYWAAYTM
T2 sequence (P30191 20-453): as the sequence (P30191 20-453) above
T2 sequence (P63138 26-474): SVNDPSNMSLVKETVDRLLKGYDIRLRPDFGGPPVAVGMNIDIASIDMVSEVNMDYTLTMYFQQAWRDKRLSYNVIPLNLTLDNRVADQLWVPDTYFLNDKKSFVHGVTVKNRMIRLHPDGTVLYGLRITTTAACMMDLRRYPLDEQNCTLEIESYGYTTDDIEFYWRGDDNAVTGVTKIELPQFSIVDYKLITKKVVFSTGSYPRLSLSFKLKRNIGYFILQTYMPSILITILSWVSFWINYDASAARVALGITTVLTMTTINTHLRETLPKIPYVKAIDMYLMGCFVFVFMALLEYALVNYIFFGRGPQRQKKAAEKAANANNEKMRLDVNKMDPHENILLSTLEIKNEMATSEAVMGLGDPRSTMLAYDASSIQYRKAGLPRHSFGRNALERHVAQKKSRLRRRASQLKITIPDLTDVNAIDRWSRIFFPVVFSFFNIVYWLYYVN
T1 sequence (P62813 28-455): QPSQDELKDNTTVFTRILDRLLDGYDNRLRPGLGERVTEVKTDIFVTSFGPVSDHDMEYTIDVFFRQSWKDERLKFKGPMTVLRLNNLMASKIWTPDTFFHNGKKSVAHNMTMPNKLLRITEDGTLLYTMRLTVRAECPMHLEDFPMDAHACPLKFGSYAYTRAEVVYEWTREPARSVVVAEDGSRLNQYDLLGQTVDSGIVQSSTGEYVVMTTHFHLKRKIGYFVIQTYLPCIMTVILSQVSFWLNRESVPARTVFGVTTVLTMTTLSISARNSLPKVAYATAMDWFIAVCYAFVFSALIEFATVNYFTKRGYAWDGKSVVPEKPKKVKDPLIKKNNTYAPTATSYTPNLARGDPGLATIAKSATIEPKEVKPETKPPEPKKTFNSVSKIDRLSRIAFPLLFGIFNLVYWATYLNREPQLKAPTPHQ
T1 sequence (P63138 26-474): as the sequence (P63138 26-474) above
T1 sequence (P18506 25-449 partner): as the sequence (P18506 25-449 partner) above

SMILES: NCc1cc(=O)[nH]o1 [[^3H]muscimol] [[Methylene‐^3H]muscimol]
- k off [1]: 0.18 ± 0.03 ^### min^−1
- Kd ([2]; 22°C, K D = koff/kon): 1.6 nM
- k off ([2]; room temperature (22°C)): 0.00883 ± 0.00033 s⁻¹
- k on [2, 9]: 3.3 ± 0.2 × 10^8 M^−1 × min^−1
- k off [3]: 1.46 ± 0.05 ^††† min^−1
- Apparent pKD [4]: 8.15 ± 0.02
- Apparent pKD [5]: 8.02 ± 0.06
- Kd ([6]; 22°C, K D = koff/kon): 1.7 nM
- k off ([6]; room temperature (22°C)): 0.00783 ± 0.00233 s⁻¹
- k on [6, 9]: 2.8 ± 0.2 × 10^8 M^−1 × min^−1
- Kd ([7]; 22°C, K D = koff/kon): 0.72 nM
- k off ([7]; room temperature (22°C)): 0.13 ± 0.01 ^### min^−1
- k on [7, 9]: 1.8 ± 0.1 × 10^8, ^### M^−1 × min^−1
- Kd ([8]; 22°C, K D = koff/kon): 1.4 nM
- k off ([8]; room temperature (22°C)): 1.11 ± 0.09 ^* min^−1
- k on [8, 9]: 7.7 ± 0.2 × 10^8 ^** M^−1 × min^−1
